Experimental data published in patent publication US20200069592A1, “HSP90 INHIBITOR ORAL FORMULATIONS AND RELATED METHODS” (Samus Therapeutics, Inc., priority 2017, published 2020).
Where two headings read alike, the source gives them in different places.

Assay: Solubility / compatibility testing in drinking solution vehicles and ingredients (Example 7)
Assay type: physicochemical
Description: This Example examined drinking solution vehicles for Compound 1 2HCl. Initially Orasweet® Sugar Free options were explored as a vehicle for Compound 1 2HCl.
ORA-Sweet®, commerically available from Perrigo, comprises purified water, sucrose, glycerine, sorbitol, and flavouring. ORA-Sweet® is buffered with citric acid and sodium phosphate and preserved with methylparaben and potassium sorbate.
ORA-Sweet® Sugar Free, commerically available from Perrigo, comprises purified water, glycerine, sorbitol, sodium saccharin, xanthan gum, and flavouring. It is buffered with citric acid and sodium citrate and preserved with methylparaben (0.03%), potassium sorbate (0.1%), and propylparaben (0.008%).
SyrSpend® SF Cherry, commercially available from Fargon, comprises purified water, modified food starch, sodium citrate, citric acid, sucralose, sodium benzoate (<0.1% preservative), sorbic acid, malic acid and simethicone.
SyrSpend® SF Alka, commercially available from Fargon, comprises modified starch, calcium carbonate and sucralose.
(§1) ORA-Blend®, commerically available from Perrigo, comprises purified water, sucrose, glycerin, sorbitol, flavoring, microcrystalline cellulose, carboxymethylcellulose sodium, xanthan gum, carrageenan, calcium sulfate, trisodium phosphate, citric acid and sodium phosphate as buffers, dimethicone antifoam emulsion and preserved with methylparaben and potassium sorbate.
as §1, with “ORA-Plus®,” for “ORA-Blend®,”, “water,” for “water, sucrose, glycerin, sorbitol, flavoring,”

CC(C)NCCCn1c(Sc2cc3c(cc2I)OCO3)nc2c(N)ncnc21 [Compound 1 2HCl]
solubility (50% Flavor Sweet SF in water, aqueous with cosolvent or surfactant or cyclodextrin, API in 50% Flavor Sweet SF/H2O, read-out: Solubility testing result: Precipitate at): < 5000 µg/mL
solubility (50% Versa Free in water, aqueous with cosolvent or surfactant or cyclodextrin, API in 50% Versa Free/H2O, read-out: Solubility testing result: Precipitate at): < 5000 µg/mL
solubility (Flavor Sweet (sugar free) vehicle, aqueous with cosolvent or surfactant or cyclodextrin, API in Flavor Sweet (sugar free), read-out: Solubility testing result: Precipitate at): < 5000 µg/mL
Compatibility with drinking solution vehicle (Orasweet Sugar Free formulations (contain xanthan gum)): incompatibility
solubility (Versa Free vehicle, aqueous with cosolvent or surfactant or cyclodextrin, API in Versa Free, read-out: Solubility testing result: Precipitate at): < 5000 µg/mL
solubility (glycerin in 50% water, aqueous with cosolvent or surfactant or cyclodextrin, read-out: Ingredient solubility testing): > 10000 µg/mL
solubility (glycerin, organic solvent or mixture, read-out: Ingredient solubility testing): > 6000 µg/mL
